Reference: the supplement of paper PMC8671470
± gives the standard deviation of the averaged measurements.

Tests used:
[1] = tested on: HL-60; experiment: cell viability (% survival relative to DMSO control); higher = less cytotoxic; conditions: 72 h
Outline: (§1)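 Four-parameter log-logistic fits in drc and PharmacoGx supplied area under the curve where it is given. Underlying viability came from CellTiter-Glo, normalised to DMSO and proteasome-inhibitor wells, with the proteasome inhibitor at 10 μM. HL-60 cells in RPMI 1640 plus 10% FBS had been rescreened against the full library at five tenfold concentrations of 1–10,000 nM, in duplicate on 384-well plates, with DMSO or 100 nM of one of three metabolic inhibitors, for 72 h at 37 °C, 5% CO2.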

[2] = tested on: HL-60; experiment: area under dose-response curve (viability, 1 nM-10 uM) (fraction (0-1)); higher = more sensitive; conditions: 72 h
Outline: as §1

[3] = 0.001 µM, co-treatment: AZD3965 100 nM
[4] = 0.001 µM, co-treatment: DMSO vehicle
[5] = 0.001 µM, co-treatment: GSK2194069 100 nM
[6] = 0.001 µM, co-treatment: pictilisib 100 nM
[7] = 0.01 µM, co-treatment: AZD3965 100 nM
[8] = 0.01 µM, co-treatment: DMSO vehicle
[9] = 0.01 µM, co-treatment: GSK2194069 100 nM
[10] = 0.01 µM, co-treatment: pictilisib 100 nM
[11] = 0.1 µM, co-treatment: AZD3965 100 nM
[12] = 0.1 µM, co-treatment: DMSO vehicle
[13] = 0.1 µM, co-treatment: GSK2194069 100 nM
[14] = 0.1 µM, co-treatment: pictilisib 100 nM
[15] = 1 µM, co-treatment: AZD3965 100 nM
[16] = 1 µM, co-treatment: DMSO vehicle
[17] = 1 µM, co-treatment: GSK2194069 100 nM
[18] = 1 µM, co-treatment: pictilisib 100 nM
[19] = 10 µM, co-treatment: AZD3965 100 nM
[20] = 10 µM, co-treatment: DMSO vehicle
[21] = 10 µM, co-treatment: GSK2194069 100 nM
[22] = 10 µM, co-treatment: pictilisib 100 nM
[23] = co-treatment: GSK2194069 100 nM
[24] = co-treatment: pictilisib 100 nM

| Structure (SMILES) | cell viability [1, 3] [%] | cell viability [1, 4] [%] | cell viability [1, 5] [%] | cell viability [1, 6] [%] | cell viability [1, 7] [%] | cell viability [1, 8] [%] | cell viability [1, 9] [%] | cell viability [1, 10] [%] | cell viability [1, 11] [%] | cell viability [1, 12] [%] | cell viability [1, 13] [%] | cell viability [1, 14] [%] | cell viability [1, 15] [%] | cell viability [1, 16] [%] | cell viability [1, 17] [%] | cell viability [1, 18] [%] | cell viability [1, 19] [%] | cell viability [1, 20] [%] | cell viability [1, 21] [%] | cell viability [1, 22] [%] | area under dose-response curve ([2]; co-treatment: AZD3965 100 nM) | area under dose-response curve ([2]; co-treatment: DMSO vehicle) | area under dose-response curve [2, 23] | area under dose-response curve [2, 24] |
| --- | --- | --- | --- | --- | --- | --- | --- | --- | --- | --- | --- | --- | --- | --- | --- | --- | --- | --- | --- | --- | --- | --- | --- | --- |
| OC[C@H]1N[C@@H](c2c[nH]c3c(O)ncnc23)[C@H](O)[C@@H]1O [Forodesine] | 97.5 ± 7.8 | 101 ± 2.1 | 100 ± 3.5 | 79.7 ± 8.4 | 105 ± 1.2 | 105 ± 1.1 | 103 ± 2.1 | 93.3 ± 3.5 | 101 ± 4.2 | 105 ± 5.4 | 96.2 ± 1.4 | 99.5 ± 11 | 101 ± 3 | 99.2 ± 1.5 | 98.2 ± 2.8 | 95.3 ± 3.3 | 94 ± 6.8 | 100.1 ± 0.95 | 95.9 ± 5.8 | 103.8 ± 0.76 | < 0.0301 | < 0.0301 | < 0.0301 | < 0.0301 |
| O=c1oc2c(cc1O)oc(=O)c1cc(O)c(O)c(O)c12 [Galloflavin] | 81.9 ± 2.5 | 102 ± 1.5 | 92.6 ± 11 | 109 ± 8.3 | 97.2 ± 2.5 | 84.8 ± 23 | 84.7 ± 13 | 93.7 ± 1.9 | 110 ± 11 | 104 ± 1.4 | 104 ± 3.8 | 94.13 ± 0.21 | 112 ± 12 | 109 ± 4.7 | 105 ± 8 | 107 ± 11 | 99.6 ± 2.8 | 99.28 ± 0.39 | 96.52 ± 0.27 | 98.54 ± 0.6 | < 0.0301 | < 0.0301 | < 0.0301 | < 0.0301 |
| N[C@@H](CCC(=O)N[C@@H](CS)C(=O)NCC(=O)O)C(=O)O [Glutathione] | 99.7 ± 0.66 | 101 ± 1.5 | 96.2 ± 3.6 | 96.6 ± 2.5 | 98.74 ± 0.26 | 99.78 ± 0.85 | 100.3 ± 0.86 | 96.4 ± 9.4 | 99.1 ± 1.7 | 99.69 ± 0.58 | 95.1 ± 7.2 | 86.3 ± 15 | 102 ± 6.2 | 98.63 ± 0.24 | 101 ± 11 | 96.3 ± 9.8 | 99.8 ± 1.6 | 102.2 ± 0.32 | 100.27 ± 0.053 | 106 ± 4.5 | < 0.0301 | < 0.0301 | < 0.0301 | < 0.0301 |
| CC1Cc2ccccc2N1NC(=O)c1ccc(Cl)c(S(N)(=O)=O)c1 (configuration not stated) [Indapamide] | 103 ± 4.1 | 98.1 ± 3.9 | 103.4 ± 0.98 | 100 ± 10 | 104 ± 2 | 104 ± 4.2 | 107.5 ± 0.58 | 112 ± 10 | 99.4 ± 5.3 | 101 ± 1.1 | 94.7 ± 4.5 | 97.14 ± 0.93 | 103.1 ± 0.94 | 99.5 ± 3.2 | 98.3 ± 8.1 | 92.8 ± 8.5 | 95.9 ± 1.7 | 103.2 ± 0.48 | 99.6 ± 4.5 | 98.4 ± 2.1 | < 0.0301 | < 0.0301 | < 0.0301 | < 0.0301 |
| COc1ccc2c(c1)c(CC(=O)O)c(C)n2C(=O)c1ccc(Cl)cc1 [Indomethacine] | 94.5 ± 15 | 93.22 ± 0.93 | 88 ± 18 | 90.7 ± 5.6 | 76.1 ± 30 | 91 ± 9.4 | 95.9 ± 5.5 | 87.2 ± 13 | 100 ± 2.1 | 97.19 ± 0.53 | 97.61 ± 0.045 | 93.2 ± 1.9 | 103 ± 1.9 | 101 ± 2.7 | 99.8 ± 6.3 | 97.1 ± 1.1 | 91.6 ± 14 | 100 ± 3 | 89.1 ± 4.4 | 88.4 ± 1.3 | < 0.0301 | < 0.0301 | < 0.0301 | < 0.0301 |
| Cn1cc(C[C@@H](N)C(=O)O)c2ccccc21 [Indoximod] | 89.7 ± 8 | 100 ± 5.2 | 96.5 ± 4.6 | 110 ± 8.8 | 96.1 ± 6.9 | 98.7 ± 1.6 | 88.55 ± 0.44 | 63.4 ± 34 | 104 ± 4.9 | 112 ± 11 | 115 ± 26 | 120 ± 22 | 106 ± 7.9 | 110 ± 9.6 | 113 ± 31 | 123 ± 29 | 101 ± 2.1 | 96.7 ± 1.3 | 86.2 ± 27 | 93.9 ± 19 | < 0.0301 | < 0.0301 | < 0.0301 | < 0.0301 |
| O=C(Oc1ccc([N+](=O)[O-])cc1)N1CCC(C(O)(c2ccc3c(c2)OCO3)c2ccc3c(c2)OCO3)CC1 [JZL184] | 110 ± 11 | 100 ± 1.5 | 103 ± 3.2 | 83.1 ± 35 | 92.8 ± 12 | 93.8 ± 6 | 99.6 ± 1 | 89.4 ± 14 | 104 ± 2.5 | 100.9 ± 0.17 | 99.2 ± 8.9 | 97.2 ± 3 | 98.7 ± 2.8 | 101 ± 2.3 | 101 ± 4.3 | 95.5 ± 2.7 | 105.1 ± 0.87 | 97.3 ± 2.7 | 107 ± 13 | 99 ± 11 | < 0.0301 | < 0.0301 | < 0.0301 | < 0.0301 |
| O=C1N[C@@H]2[C@@H](O)[C@@H](O)[C@H](O)[C@@H](CO)N2C1=O [Kifunensine] | 93.1 ± 5.7 | 96.82 ± 0.8 | 95.7 ± 6.9 | 85.7 ± 3.2 | 81.8 ± 28 | 99.24 ± 0.24 | 79.8 ± 27 | 112 ± 7.8 | 101 ± 2.2 | 103 ± 3.2 | 101 ± 1.8 | 95.7 ± 2.5 | 99.3 ± 1.2 | 101 ± 3.6 | 91.23 ± 0.73 | 104 ± 2.7 | 108 ± 4.8 | 108 ± 1.7 | 91.9 ± 9.2 | 111.3 ± 0.3 | < 0.0301 | < 0.0301 | < 0.0301 | < 0.0301 |
